Assay results as given in patent US20250312473A1, “B7H3 ANTIBODY DRUG CONJUGATES” (BEONE MEDICINES I GMBH, priority 2022, published 2025).

Key:
[1] = HIC methods to evaluate ADC hydrophobicity (DAR8 HIC retention time); assay type: physicochemical; details: HIC Method 2
Procedure: HPLC analysis was carried out under the following measurement conditions: • HPLC system: Waters ACQUITY ARC HPLC System • Detector: measurement wavelength: 280 nm • Column: MABPac HIC-10, 5 μm, 4.6×10 mm (Thermo) • Column temperature: 25° C. • Mobile phase A: 1.5 M ammonium sulfate, 50 mM sodium phosphate, pH 7.0 • Mobile phase B: 50 mM sodium phosphate, pH 7.0 • Gradient program: 20% B—20% B (0 min-1 min), 0% B-0% B (1 min-35 min), 20% B-20% B (35 min-40 min) • Flow rate: 0.5 mL/min
Sample preparation: The sample was diluted with initial mobile phase to 0.5 mg/mL.
DAR8 HIC retention time (min) is an indication of the relative hydrophobicity of an ADC. ADCs with higher DAR8 HIC retention have a higher hydrophobic property.

NCI-H1650 = assay: ADC direct killing, 3D culture, NCI-H1650; assay type: cell-based, human; details: 6 days
Procedure: (§1) The base medium for NCI-H1650 is ATCC-formulated RPMI-1640 Medium, ATCC 30-2001. To make the complete growth medium, fetal bovine serum was added to the base medium to a final concentration of 10% (Gibco, 10099-141C). The cell line was grown in a humidified 5% CO2 atmosphere at 37° C., and was regularly tested for the presence of mycoplasma with MycoAlert™ PLUS Mycoplasma Detection Kit (Lonza, LT07-710).
(§2) NCI-H1650, NCI-H1048, MDA-MB-453 (2E3/well) or Capan-1 (4E3/well) cells were seeded into 3D-96-well plates (Corning: 4520) at 80 μl/well and incubated at 37° C., 5% CO2, overnight.
(§3) Fresh growth medium containing the varying concentrations of ADCs was added at 40 µl/well. The cells were incubated at 37° C., 5% CO2, 6 days.
(§4) The cell viability was detected by 3D reagent (Promega, G9683), […]. The plates were allowed to incubate at room temperature for 30 minutes to stabilize the luminescent signal. Then the plates were analyzed with a microplate reader.

Capan-1 = assay: ADC direct killing, 3D culture, Capan-1; assay type: cell-based, human; details: 6 days
Procedure: Capan-1 is a cell line with epithelial morphology that was isolated from the pancreas of a person with pancreatic adenocarcinoma, and Capan-1 was purchased from ATCC. The base medium for Capan-1 is ATCC-formulated Iscove's Modified Dulbecco's Medium, Catalog No. 30-2005. To make the complete growth medium, fetal bovine serum was added to the base medium to a final concentration of 20% (Gibco, 10099-141C). The cell line was grown in a humidified 5% CO2 atmosphere at 37° C., and was regularly tested for the presence of mycoplasma with MycoAlert™ PLUS Mycoplasma Detection Kit (Lonza, LT07-710).
as §2, §3, §4

NCI-H1048 = assay: ADC direct killing, 3D culture, NCI-H1048; assay type: cell-based, human; details: 6 days
Procedure: as §1, with “NCI-H1048” for “NCI-H1650”, “DMEM:F12 Medium Catalog No. 30-2006.” for “RPMI-1640 Medium, ATCC 30-2001.”
as §2, §3, §4

[2] = test system: NCI-H358:MDA-MB-453-nanoLuc = 10:1; assay: ADC bystander killing, NCI-H358/MDA-MB-453 (nano-Luc) co-culture; assay type: cell-based, human; details: co-culture 10:1, 3D, 6 days
Procedure: Method: MDA-MB-453-nanoLuc cell line construction PT67-nanoLuc cells were cultured, then the cell-culture medium (containing the virus (nano-Luc gene)) was collected and filtered. MDA-MB-453 cells were seed in 6-well plates at 1E5 cells/well, and incubated at 37° C., 5% CO2, overnight. The PT67-nanoLuc cell medium and 8 ug/mli polybrene was added. The infection was repeated 3 times, every one day. Then the MDA-MB-453-nanoLuc cells were cultured with the addition of 1 mg/ml Geneticin for 5 days. The MDA-MB-453-nanoLuc cells were collected, and Nano-Glo reagent (Promega: N1120) was added to test the nano-Luc transfection efficiency.
Method: ADC Bystander Killing NCI-H358 & MDA-MB-453-nanoLuc (10:1), or MDA-MB-453-nanoLuc cels alone were seeded into 3D-96-well plates (Corning: 4520) at 80 μl/well, and Incubated at 37° C., 5% CO2, overnight. Fresh growth medium containing the varying concentrations of ADCs was added at 40 μl/well. The cells were incubated at 37° C., 5% CO2, 6 days. The 3D-plates were centrifuged at 1500 rpm, 25° C., […], then the supernatant was discarded.
The […] cell viability was detected by Nano-Glo reagent (Promega: N1120), 150 μl/well. The 3D-plates were allowed to incubate at room temperature for 10 minutes to stabilize the luminescent signal. Then the plates were analyzed with a microplate reader.

[3] = test system: H1650 xenografts (B7H3 IHC 3+); assay: ADC in vivo efficacy study, H1650 xenografts; design: species or system BALB/c Nude mice; details: for TGI (%) at T 28: day 28; for TGI (%) at T 30: day 30
Procedure: Female BALB/c Nude mice were subcutaneously implanted with 3×10^6 H1650 cells per 200 μL PBS/matrigel in the right flank. After inoculation, tumor volumes were determined twice weekly in two dimensions using a caliper, and were expressed in mm^3 using the formula: V=0.5(a×b^2) where a and b are the long and short dimensions of the tumor, respectively.
Partial regression (PR) was defined as tumor volume smaller than 50% of the starting tumor volume on the first day of dosing in three consecutive measurements and complete regression (CR) was defined as tumor volume less than 14 mm^3 in three consecutive measurements. Data is presented as mean tumor volume±standard error of the mean (SEM). Tumor growth inhibition (TGI) is calculated using formula (TGI):
[formula] • treated t=treated tumor volume at time t • treated t0=treated tumor volume at time 0 • placebo t=placebo tumor volume at time t • placebo t0=placebo tumor volume at time 0

[4] = test system: H1975 xenografts (B7H3 IHC 3+); assay: ADC in vivo efficacy study, H1975 xenografts; design: species or system BALB/c Nude mice; details: study (5); 3 mpk (3 mg/kg) i.v. on day 1; day 31

ADC3-A: "ADC3-A is the biosimilar ADC of DS7300a (benchmark)"; antibody MABX-9001a, average DAR 3.99
HIC DAR8 RT (min) Method 2 [1]: 21.817 (Meth - od 2) min | EC50 (NCI-H1650; Table 6, NCI-H1650 (High)): 8.2 nM | Emax (%) (NCI-H1650; Table 6, NCI-H1650 (High)): 54.2% | EC50 (NCI-H1650; Table 7, NCI-H1650 (High)): 8.2 nM | Emax (%) (NCI-H1650; Table 7, NCI-H1650 (High)): 54.2% | EC50 (NCI-H1650; Table 8, NCI-H1650 (High)): 10.9 nM | Emax (%) (NCI-H1650; Table 8, NCI-H1650 (High)): 33.1% | EC50 (NCI-H1650; Table 9, NCI-H1650 (High)): 5.7 nM | Emax (%) (NCI-H1650; Table 9, NCI-H1650 (High)): 62.0% | EC50 (NCI-H1650; Table 10, NCI-H1650 (High)): 7.4 nM | Emax (%) (NCI-H1650; Table 10, NCI-H1650 (High)): 61.1% | EC50 (Capan-1; Table 6, Capan-1 (Low)): 4 nM | Emax (%) (Capan-1; Table 6, Capan-1 (Low)): 66.7% | EC50 (Capan-1; Table 7, Capan-1 (Low)): 4 nM | Emax (%) (Capan-1; Table 7, Capan-1 (Low)): 66.7% | EC50 (Capan-1; Table 8, Capan-1 (Low)): 1.7 nM | Emax (%) (Capan-1; Table 8, Capan-1 (Low)): 71.4% | EC50 (NCI-H1048; Table 9, NCI-H1048 (Low)): 1.2 nM | Emax (%) (NCI-H1048; Table 9, NCI-H1048 (Low)): 98.9% | EC50 (NCI-H1048; Table 10, NCI-H1048 (Low)): 2.6 nM | Emax (%) (NCI-H1048; Table 10, NCI-H1048 (Low)): 99.0% | EC50 ([2]; Table 11): 9.8 nM | Emax (%) bystander killing ([2]; Table 11): 89.1% | EC50 ([2]; Table 12): 9.8 nM | Emax (%) bystander killing ([2]; Table 12): 89.1% | EC50 ([2]; Table 13): 5.4 nM | Emax (%) bystander killing ([2]; Table 13): 82.3% | EC50 ([2]; Table 14): 13 nM | Emax (%) bystander killing ([2]; Table 14): 89.5% | TGI (%) at T 28 ([3]; study (1), 3 mpk (3 mg/kg) i.v. on day 1): 53% | TGI (%) at T 28 ([3]; study (1), 10 mpk (10 mg/kg) i.v. on day 1): 86% | TGI (%) at T 30 ([3]; study (2), 10 mpk (10 mg/kg) i.v. on day 1): 85% | TGI (%) at T 30 ([3]; study (3), 10 mpk (10 mg/kg) i.v. on day 1): 85% | TGI (%) at T 28 ([3]; study (4), 10 mpk (10 mg/kg) i.v. on day 1): 70% | TGI (%) at T 31 [4]: 56%
